We go through one compound from patent US11162902B2, “Metasurfaces comprised of nanosphere oligomers with uniform narrow gap spacings, their method of fabrication and applications in sensing” (The Regents of the University of California, priority 2017, dated 2021).

Experiment [1] relates to P. aeruginosa strain PA14. The conditions noted are these: cited from earlier work.
In another experiment the test system is P. aeruginosa biofilms. In words: Antibiotic susceptibility measurements of surface-attached bacteria / biofilms (live/dead staining, dead cell fraction). The format is cell-based, Pseudomonas aeruginosa. The conditions noted are these: 600 μg·mL^−1 carbenicillin in PBS for 3 h; growth 6, 10, 15, 24 h; FIG. 18E.

In brackets after ≈: the same amount, converted by molar mass.

For `CC1(C)S[C@@H]2[C@H](NC(=O)C(C(=O)O)c3ccccc3)C(=O)N2[C@H]1C(=O)O` (some centres unmarked) [carbenicillin], the minimum inhibitory concentration in experiment [1] was 128 µg/mL (≈ 338 µM). In addition, in the experiment with P. aeruginosa biofilms, the “antibiotic susceptibility of surface-attached bacteria at different stages of biofilm growth” value is “susceptibility decreased significantly with increasing growth time”.
